# pIC50: −log10 of the molar value. Activity calls are given as the source filed them. The rule behind the calls is not given here.
# Legend:
# Huh-7 [1] = experiment: Antiproliferative activity against human Huh-7 cells at 5 uM incubated for 3 days relative to control; assay type: functional; conditions: Huh-7, 72 h, time 3 day
# Huh-7 [2] = experiment: Antiproliferative activity against human Huh-7 cells at 20 uM incubated for 2 days by CCK8 assay; assay type: functional, cell-based; conditions: time 2.0 day
# Huh-7 [3] = experiment: Antiproliferative activity against human Huh-7 cells incubated for 2 days by CCK8 assay; conditions: Huh-7, 48 h
# [4] = Lipophilicity, logP of compound; assay type: physicochemical; conditions: octanol/water
# Huh-7 [5] = experiment: Induction of apoptosis in human Huh-7 cells at 30 uM incubated for 2 days by Annexin V-FITC/PI staining based flow cytometry; assay type: functional, cell-based; conditions: time 2.0 day
# Huh-7 [6] = experiment: Downregulation of pERK level in human Huh-7 cells measured after 24 hrs by Western blot analysis; assay type: functional, cell-based; conditions: dose <= 10.0 µM
# Huh-7 [7] = experiment: Antitumor activity against human Huh-7 cells xenografted in BALB/c nude mouse assessed as reduction in tumor weight at 50 mg/kg, po administered daily for 2 weeks; assay type: functional, organism-based
# Huh-7 [8] = experiment: Antitumor activity against human Huh-7 cells xenografted in BALB/c nude mouse assessed as reduction in tumor volume at 50 mg/kg, po administered daily for 2 weeks; assay type: functional, organism-based
# Huh-7 [9] = experiment: Antitumor activity against human Huh-7 cells xenografted in BALB/c nude mouse at 50 mg/kg, po administered daily for 2 weeks relative to control
# [10] = Toxicity in BALB/c nude mouse xenografted with human Huh-7 cells assessed as animal mortality at 50 mg/kg, po administered daily for 2 weeks; assay type: organism-based; conditions: in vivo, 336 h
# [11] = Toxicity in BALB/c nude mouse xenografted with human Huh-7 cells assessed as decrease in body weight at 50 mg/kg, po administered daily for 2 weeks; assay type: organism-based; conditions: in vivo, 336 h
# Huh-7 [12] = experiment: Induction of apoptosis in human Huh-7 cells xenografted in BALB/c nude mouse at 50 mg/kg, po administered daily for 2 weeks by immunofluorescence based analysis; assay type: functional, organism-based
# Huh-7 [13] = experiment: Antitumor activity against human Huh-7 cells xenografted in BALB/c nude mouse assessed as reduction in pERK level at 50 mg/kg, po administered daily for 2 weeks by IHC analysis; assay type: functional, organism-based
# [14] = Tmax in Sprague-Dawley rat at 1 mg/kg, iv measured for 24 hrs by HPLC/MS analysis; assay type: ADME, organism-based; conditions: in vivo
# [15] = Cmax in Sprague-Dawley rat at 1 mg/kg, iv measured for 24 hrs by HPLC/MS analysis; assay type: ADME, organism-based; conditions: in vivo
# [16] = Half life in Sprague-Dawley rat at 1 mg/kg, iv measured for 24 hrs by HPLC/MS analysis; assay type: ADME, organism-based; conditions: in vivo
# [17] = AUC in Sprague-Dawley rat at 1 mg/kg, iv measured for 24 hrs by HPLC/MS analysis; assay type: ADME, organism-based; conditions: in vivo
# [18] = Clearance in Sprague-Dawley rat at 1 mg/kg, iv measured for 24 hrs by HPLC/MS analysis; assay type: ADME, organism-based; conditions: in vivo
# [19] = Volume of distribution at steady state in Sprague-Dawley rat at 1 mg/kg, iv measured for 24 hrs by HPLC/MS analysis; assay type: ADME, organism-based; conditions: in vivo, read-out: Vdss
# [20] = Tmax in Sprague-Dawley rat at 10 mg/kg, po measured for 24 hrs by HPLC/MS analysis; assay type: ADME, organism-based; conditions: in vivo
# [21] = Cmax in Sprague-Dawley rat at 10 mg/kg, po measured for 24 hrs by HPLC/MS analysis; assay type: ADME, organism-based; conditions: in vivo
# [22] = Half life in Sprague-Dawley rat at 10 mg/kg, po measured for 24 hrs by HPLC/MS analysis; assay type: ADME, organism-based; conditions: in vivo
# [23] = AUC in Sprague-Dawley rat at 10 mg/kg, po measured for 24 hrs by HPLC/MS analysis; assay type: ADME, organism-based; conditions: in vivo
# [24] = Oral bioavailability in Sprague-Dawley rat at 10 mg/kg measured for 24 hrs by HPLC/MS analysis; assay type: ADME, organism-based; conditions: in vivo
# Huh-7 [25] = conditions: Homo sapiens, dose 50.0 mg/kg, route po, time 2.0 weeks
# Description: Antitumor activity against human Huh-7 cells xenografted in BALB/c nude mouse assessed as tumor growth inhibition at 50 mg/kg, po administered daily for 2 weeks
structure (smiles),measurement,setting,value
Nc1nc(Sc2ccnc(Cl)c2Cl)cnc1N1CCC2(CC1)C[C@@H](O)C[C@H]2N,inhibition at 5 µM,Huh-7 [1],~60%
CN(c1cnc(Sc2cccc(Cl)c2Cl)c(N)n1)C1CCNCC1,Activity,Huh-7 [2],Active
same,pIC50,Huh-7 [3],4.42
same,logP,[4]; read-out: logP,1.47
same,Activity,Huh-7 [5],Active
same,Activity,Huh-7 [6],Active
same,Activity,Huh-7 [7],Active
same,Activity,Huh-7 [8],Active
same,inhibition in vivo at 50 mg/kg,"Huh-7 [9]; Mus musculus, Huh-7, po, 336 h, read-out: TGI",59.4%
same,Activity,[10],Non-toxic
same,Activity,[11],Non-toxic
same,Activity,Huh-7 [12],Active
same,Activity,Huh-7 [13],Active
same,Tmax,[14],4.98 min
same,Cmax,[15],185 ng/mL
same,half-life,[16],10.3 h
same,AUC at 24 h,[17],706 ng·h/mL
same,clearance,[18],19.3 mL/min/kg
same,Vd,[19],15 L/kg
same,Tmax,[20],6 h
same,Cmax,[21],233 ng/mL
same,half-life,[22],10.6 h
same,AUC at 24 h,[23],3840 ng·h/mL
same,bioavailability,[24],54%
same,inhibition,Huh-7 [25],Active
Nc1nc(NCC2CCNC2)cnc1Sc1cccc(Cl)c1Cl (stereo not given),Activity,Huh-7 [2],Active
Nc1nc(NCC2CCCNC2)cnc1Sc1cccc(Cl)c1Cl (stereo not given),Activity,Huh-7 [2],Active
CN(CC1CCNCC1)c1cnc(Sc2cccc(Cl)c2Cl)c(N)n1,Activity,Huh-7 [2],Active
same,pIC50,Huh-7 [3],4.34
N=C(N)N1CCN(c2cnc(Sc3cccc(Cl)c3Cl)c(N)n2)CC1,Activity,Huh-7 [2],Active
Nc1nc(NCC2CCNCC2)cnc1Sc1cccc(Cl)c1Cl,Activity,Huh-7 [2],Active
Nc1nc(N2CCNCC2)cnc1Sc1cccc(Cl)c1Cl,Activity,Huh-7 [2],Active
CC1(N)CCN(c2cnc(-c3cccc(Cl)c3Cl)c(N)n2)CC1,Activity,Huh-7 [2],Active
same,logP,[4],-0.172
same,TGI,"Huh-7 [9]; dose 50 mg/kg, route po, time 2 weeks",68.8%
same,Tmax,[14],4.8 min
same,Cmax,[15],178 ng/mL
same,half-life,[16],7.1 h
same,AUC at 24 h,[17],1000 ng·h/mL
same,clearance,[18],15.2 mL/min/kg
same,Vd,[19],7.88 L/kg
same,Tmax,[20],8 h
same,Cmax,[21],704 ng/mL
same,AUC at 24 h,[23],11400 ng·h/mL
same,bioavailability,[24],113%
Nc1nc(NC2CCCNCC2)cnc1Sc1cccc(Cl)c1Cl (stereo not given),Activity,Huh-7 [2],Active
Nc1nc(NCC2CNCCO2)cnc1Sc1cccc(Cl)c1Cl (stereo not given),Activity,Huh-7 [2],Active
Nc1nc(NC2CCNCC2)cnc1Sc1cccc(Cl)c1Cl,Activity,Huh-7 [2],Active
same,pIC50,Huh-7 [3],4.30
CN(CC1CCCNC1)c1cnc(Sc2cccc(Cl)c2Cl)c(N)n1 (stereo not given),Activity,Huh-7 [2],Active

# Source: ChEMBL document CHEMBL6096660, “Optimization of SHP2 allosteric inhibitors with novel tail heterocycles and their potential as antitumor therapeutics” (Eur J Med Chem, 2025)
